Laboratory results: paper PMC12794274, “Therapeutic potential of Sheng-Xian-Tang in doxorubicin-induced chronic heart failure by regulation of phenylalanine metabolism disruption” (Chinese Medicine, 2026)

Legend:
phenylalanine metabolism = assay: Phenylalanine and tyrosine levels in rat serum, liver and heart tissues (LC/MS); format: in vivo; settings: DOX-induced CHF rats, day 39
Method: Phenylalanine and tyrosine in the different rat bio-samples were analyzed by LC/MS using an Agilent 1290 Ultra high-performance liquid chromatography (UHPLC) and an Agilent 6460 triple-quadrupole tandem mass spectrometer (QQQ-MS) (Agilent Inc, USA). Data were acquired by using an Agilent Zorbax SB-C18 column (3.0 × 150 mm, 5 μm) as described previously.

[1] = test system: phenylalanine hydroxylase (PAH); assay: PAH expression in liver and heart (western blotting, immunofluorescence); format: in vivo, rat
Method: Immunofluorescence staining was performed on tissue sections to detect phenylalanine hydroxylase (PAH), prostaglandin-endoperoxide synthase 2 (PTGS2), and reactive oxygen species (ROS). Primary antibodies against PAH and PTGS2 were used, while ROS was detected using the DCFH-DA probe. Nuclei were counterstained with DAPI. Images were captured using a fluorescence microscope.
Protein was extracted from liver or heart tissue samples (30 mg) using lysis buffer. Total protein concentration was determined using a BCA protein assay kit (Thermo Fisher Scientific, USA). Equal amounts of protein from each sample were separated on 10–12% SDS-PAGE gels and transferred to PVDF membranes. Membranes were blocked with quick blocking buffer for 30 min, then incubated with anti-PAH primary antibody (1:1000 dilution) overnight at 4 °C. After washing, membranes were incubated with a secondary antibody for 1 h at 37 °C. Protein bands were visualized using an Odyssey infrared imaging system (JS-1070, Shanghai Peiqing Science & Technology Co., Ltd, China). Band intensities were quantified using ImageJ software.

[2] = test system: cardiac tissues of DOX-induced CHF rats; assay: Heart histopathology (H&E, Masson) and TUNEL apoptosis detection; format: in vivo, rat; settings: DOX group
Method: Cardiac tissues were fixed in 4% paraformaldehyde, embedded in paraffin, and sectioned at 4–5 μm thickness. Hematoxylin and eosin (H&E) staining was performed to assess histopathological changes, while Masson’s trichrome staining was used to evaluate cardiac fibrosis. Apoptosis in cardiac tissues was detected using a TUNEL assay kit (C1088, Beyotime, Shanghai, China).

[3] = test system: urinary metabolites of DOX-induced CHF rats; assay: Urine metabolomics (UHPLC-Q-TOF/MS); format: in vivo, rat
Method: Urine samples (200 μL) were mixed with 200 μL of protein precipitant (methanol: acetonitrile, 1:1) and vortexed for 30 s at 4 °C. Samples were sonicated for 10 min in an ice bath, then incubated at – 20 °C for 1 h. After centrifugation at 13,000 rpm for 15 min at 4 °C, 200 μL of supernatant was transferred to sample vials for analysis. A pooled quality control (QC) sample was prepared by combining 10 μL of supernatant from each sample. Sample analysis was performed using a Waters H-Class UPLC system coupled to a Triple TOF 6600 mass spectrometer (AB SCIEX, USA). Chromatographic separation was achieved on an ACQUITY UPLC HSS T3 column (2.1 × 100 mm, 1.7 μm; Waters) using 0.1% formic acid in water (mobile phase A) and acetonitrile (mobile phase B). […] Mass spectrometry was performed in both positive and negative ionization modes. Key parameters included: ion spray voltage, 5500/− 4500 V; m/z range, 60–1000; gas 1 and 2, 60 psi; curtain gas, 35 psi; accumulation time, 1.2 s; source temperature, 550 °C; declustering potential, 60 V. Information-dependent acquisition (IDA) was used with the following settings: m/z range, 50–1000; accumulation time, 0.05 s; collision energy, 40 ± 20 V. Data processing was performed using XC-MS plus software for peak alignment, extraction, and normalization. Metabolite identification was carried out using the MetDNA database. Multivariate statistical analysis, including principal component analysis (PCA) and orthogonal partial least squares discriminant analysis (OPLS-DA), was conducted using MetaboAnalyst 5.0. Differential metabolites were identified based on variable importance in projection (VIP) scores > 1.0 and P < 0.05. Fold change (FC) values were used to determine up- or down-regulation. Metabolic pathway analysis was performed using MetaboAnalyst 5.0, with significance set at P < 0.05.

[4] = DOX vs CON group, experiment I, p < 0.001
[5] = experiment II, DOX vs CON, co-treatments vs DOX

For COc1cccc2c1C(=O)c1c(O)c3c(c(O)c1C2=O)C[C@@](O)(C(=O)CO)C[C@@H]3O[C@H]1C[C@H](N)[C@H](O)[C@H](C)O1 [DOX, Doxorubicin], the “phenylalanine levels in hepatic and cardiac tissues and plasma” value (phenylalanine metabolism) was “significant elevation”, the “ectopic heart PAH expression” value [1, 4] was “significantly increased” and the “liver PAH expression” value [1, 4] was “significantly decreased”. For the same compound, the “PAH expression in heart tissue” value [1, 5] was “significantly raising”, the “PAH expression in liver tissue” value [1, 5] was “substantially lowered” and the “H&E and Masson's trichrome staining of cardiac tissue” value [2] was “inflammatory infiltration and increased collagen deposition”. For the same compound, the “urinary levels of 4-(2-aminophenyl)-2,4-dioxobutanoate, hippurate, phenylacetylglycine, 5-methoxyindoleacetate, phenylpyruvate, and phenylalanine” value ([3]; DOX group vs CON group) was “significantly increased”, the “urinary levels of indole-3-acetaldehyde, urea, anthranilate, indoleacetic acid, tryptamine, N-acetyl-L-glutamate, tyrosine, and glutamate” value ([3]; DOX group vs CON group) was “significantly decreased” and the urinary phenylalanine level ([3]; day 10 after DOX administration, P < 0.001) was “sharp increase”.
